35 compounds from patent US7851474B2, “Dipiperazinyl ketones and related analogues” (Neurogen Corporation, priority 2005, dated 2010) can be followed below.

The structures appear in SMILES notation. Bounds are passed on as bounds.

The target of the first assay is T1, chimeric human H3 receptor (Homo sapiens, UniProt Q9Y5N1, E19D).
T1 construct: made in house; host or cells: Sf9 insect cells (baculovirus infection); P2 membrane preparation
T1 sequence (Q9Y5N1 with tags, fused parts or gaps E19D): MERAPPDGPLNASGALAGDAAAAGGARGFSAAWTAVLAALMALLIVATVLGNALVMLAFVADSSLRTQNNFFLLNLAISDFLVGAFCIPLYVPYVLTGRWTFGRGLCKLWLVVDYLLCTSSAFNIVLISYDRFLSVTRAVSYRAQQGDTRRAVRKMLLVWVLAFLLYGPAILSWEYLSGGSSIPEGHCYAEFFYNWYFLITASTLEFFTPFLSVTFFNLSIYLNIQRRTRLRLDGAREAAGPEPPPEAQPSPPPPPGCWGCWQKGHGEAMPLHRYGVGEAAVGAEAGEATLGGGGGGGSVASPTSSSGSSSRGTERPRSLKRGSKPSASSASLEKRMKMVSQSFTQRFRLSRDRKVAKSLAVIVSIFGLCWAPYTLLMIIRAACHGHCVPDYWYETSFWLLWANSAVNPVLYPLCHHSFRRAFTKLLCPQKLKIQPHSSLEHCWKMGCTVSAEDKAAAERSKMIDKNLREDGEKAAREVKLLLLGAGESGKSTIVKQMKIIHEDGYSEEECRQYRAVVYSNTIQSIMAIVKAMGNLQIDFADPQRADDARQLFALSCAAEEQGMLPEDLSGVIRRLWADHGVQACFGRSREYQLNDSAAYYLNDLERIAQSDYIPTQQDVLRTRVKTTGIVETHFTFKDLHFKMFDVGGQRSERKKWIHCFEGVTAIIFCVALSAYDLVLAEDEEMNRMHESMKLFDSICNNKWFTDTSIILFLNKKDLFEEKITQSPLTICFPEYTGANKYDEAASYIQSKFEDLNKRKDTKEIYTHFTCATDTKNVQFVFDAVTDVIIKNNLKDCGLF
In words: Chimeric human H3 receptor GTP binding assay (agonist-stimulated GTP-gamma35S binding, Example 7). Conditions: "*" in Ki of Table II; assay of Example 7; read-out: Ki. The format is biochemical. In a few lines:
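IC50 values come from non-linear regression of dose-response curves of filter-bound GTP-gamma^35S, counted by scintillation. Membranes were from infected Sf9 cells carrying receptor plus G-protein subunits, 35 μg/tube, with 10 μM GDP present.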
As for `CC(=O)c1cccc(-c2cnc(N3CCN(CC(=O)N4CCN(C5CCC5)CC4)CC3)cn2)c1` [Compound 454, 1-[3-(5-{4-[2-(4-cyclobutylpiperazin-1-yl)-2-oxoethyl]piperazin-1-yl}pyrazin-2-yl}phenyl]ethanone], the Ki is below 1 µM.

Still in this assay, the particulars now being: Table II "Ki", symbol "*": Ki in the assay of Example 7; read-out: Ki.
Consider `COc1ccc(-c2ccc(N3CCN(CC(=O)N4CCN(C5CCC5)CC4)CC3)cc2)c(C)c1` [Compound 779, 1-cyclobutyl-4-{[4-(4′-methoxy-2′-methylbiphenyl-4-yl)piperazin-1-yl]acetyl}piperazine], for which the Ki is below 1 µM.

For the compound `CCC(C)N1CCN(C(=O)CN2CCN(c3cccc(C(F)(F)F)c3)CC2)CC1` (centres unmarked) [Compound 853, 1-sec-butyl-4-({4-[3-(trifluoromethyl)phenyl]piperazin-1-yl}acetyl)piperazine], the Ki is below 1 µM.

With `CCC(C)N1CCN(C(=O)CN2CCN(c3cc(Cl)ccc3C)CC2)CC1` (centres unmarked) [Compound 885, 1-sec-butyl-4-{[4-(5-chloro-2-methylphenyl)piperazin-1-yl]acetyl}piperazine], the Ki is below 1 µM.

`Cc1cccc(C)c1N1CCN(CC(=O)N2CCN(C3CCCC3)CC2)CC1` [Compound 835, 1-cyclopentyl-4-{[4-(2,6-dimethylphenyl)piperazin-1-yl]acetyl}piperazine]: the Ki is below 1 µM.

Regarding `CCC(C)N1CCN(C(=O)CN2CCC(N3CCCC3)CC2)CC1` (centres unmarked) [Compound 858, 1-sec-butyl-4-[(4-pyrrolidin-1-ylpiperidin-1-yl)acetyl]piperazine], the Ki was below 1 µM.

In the case of `O=C(CN1CCN(c2ccc(F)cc2)CC1)N1CCN(C2CCCCC2)CC1` [Compound 822, 1-cyclohexyl-4-{[4-(4-fluorophenyl)piperazin-1-yl]acetyl}piperazine], the Ki was below 1 µM.

Staying with this assay, now noted: Table II, "*" in Ki; assay of Example 7; read-out: Ki.
For `COc1cccc(N2CCN(CC(=O)N3CCN(C4CCC4)CC3)CC2)c1` [Compound 759, 1-cyclobutyl-4-{[4-(3-methoxyphenyl)piperazin-1-yl]acetyl}piperazine], the Ki is below 1 µM.

Turning to `O=C(CN1CCC(N2CCCC2)CC1)N1CCN(C2CCC2)CC1` [Compound 658, 1-cyclobutyl-4-[(4-pyrrolidin-1-ylpiperidin-1-yl)acetyl]piperazine], the inhibition constant (Ki) was below 1 µM.

In the case of `O=C(CN1CCN(c2ccccc2)CC1)N1CCN(C2CCC2)CC1` [Compound 657, 1-cyclobutyl-4-[(4-phenylpiperazin-1-yl)acetyl]piperazine], the Ki is below 1 µM.

`CS(=O)(=O)c1ccc(N2CCN(CC(=O)N3CCN(C4CCC4)CC3)CC2)c(F)c1` [Compound 581, 1-cyclobutyl-4-({4-[2-fluoro-4-(methylsulfonyl)phenyl]piperazin-1-yl}acetyl)piperazine]: the Ki is below 1 µM.

Consider `COC[C@@H]1CCCN1C(=O)c1ccc(N2CCN(CC(=O)N3CCN(C4CCC4)CC3)CC2)cc1` [Compound 768, 1-cyclobutyl-4-{[4-(4-{[(2S)-2-(methoxymethyl)pyrrolidin-1-yl]carbonyl}phenyl)piperazin-1-yl]acetyl}piperazine], for which the inhibition constant Ki is below 1 µM.

For `O=C(CN1CCN(c2ccc(C(=O)N3CCCCC3)cn2)CC1)N1CCN(C2CCC2)CC1` [Compound 610, 1-cyclobutyl-4-({4-[5-(piperidin-1-ylcarbonyl)pyridin-1-yl]piperazin-1-yl}acetyl)piperazine], the Ki was below 1 µM.

With `Cc1ccc(F)c(-c2ccc(N3CCN(CC(=O)N4CCN(C5CCC5)CC4)CC3)cc2)c1` [Compound 705, 1-cyclobutyl-4-{[4-(2′-fluoro-5′-methylbiphenyl-4-yl)piperazin-1-yl]acetyl}piperazine], the Ki is below 1 µM.

Still in this assay, the particulars now being: Table II; assay of Example 7; "*" in Ki; read-out: Ki.
Consider `O=C(CN1CCN(c2cnc(-c3ccc(F)c(F)c3)cn2)CC1)N1CCN(C2CCC2)CC1` [Compound 962, 2-{4-[2-(4-cyclobutylpiperazin-1-yl)-2-oxoethyl]piperazin-1-yl}-5-(3,4-difluorophenyl)pyrazine], for which the Ki was below 1 µM.

As to `CCN(C(=O)c1cccc(N2CCN(CC(=O)N3CCN(C4CCC4)CC3)CC2)c1)C(C)C` [Compound 1066, 3-{4-[2-(4-cyclobutylpiperazin-1-yl)-2-oxoethyl]piperazin-1-yl}-N-ethyl-N-isopropylbenzamide], the Ki was below 1 µM.

On to `O=C(CN1CCN(c2cnc(-c3ccccc3Oc3ccccc3)cn2)CC1)N1CCN(C2CCC2)CC1` [Compound 959, 2-{4-[2-(4-cyclobutylpiperazin-1-yl)-2-oxoethyl]piperazin-1-yl}-5-(2-phenoxyphenyl)pyrazine], for which the Ki was below 1 µM.

`CN(C)c1ccc(-c2ccc(N3CCN(CC(=O)N4CCN(C5CCC5)CC4)CC3)nn2)cc1` [Compound 1099, 4-(6-{4-[2-(4-cyclobutylpiperazin-1-yl)-2-oxoethyl]piperazin-1-yl}pyndazin-3-yl)-N,N-dimethylaniline]: the Ki was below 1 µM.

Take `CCOc1cccc(-c2ccc(N3CCN(CC(=O)N4CCN(C5CCC5)CC4)CC3)nn2)c1` [Compound 1022, 3-{4-[2-(4-cyclobutylpiperazin-1-yl)-2-oxoethyl]piperazin-1-yl}-6-(3-ethoxyphenyl)pyridazine]: the Ki is below 1 µM.

In the case of `O=C(CN1CCN(c2ncc(F)cn2)CC1)N1CCN(C2CCCC2)CC1` [Compound 977, 2-{4-[2-(4-cyclopentylpiperazin-1-yl)-2-oxoethyl]piperazin-1-yl}-5-fluoropyrimidine], the Ki was below 1 µM.

Turning to `O=C(CN1CCN(c2ccc(-c3ccc4ccccc4c3)nn2)CC1)N1CCN(C2CCC2)CC1` [Compound 1006, 3-{4-[2-(4-cyclobutylpiperazin-1-yl)-2-oxoethyl]piperazin-1-yl}-6-(2-naphthyl)pyridazine], the Ki was below 1 µM.

Still in this assay, the particulars now being: assay of Example 7; "*" in Ki of Table II; read-out: Ki.
As for `O=C(NC1CCCCC1)c1ccc(N2CCN(CC(=O)N3CCN(C4CCC4)CC3)CC2)nc1` [Compound 1181, 6-{4-[2-(4-cyclobutylpiperazin-1-yl)-2-oxoethyl]piperazin-1-yl}-N-cyclohexylnicotinamide], the Ki was below 1 µM.

Regarding `CC(C)CN1CCN(C(=O)CN2CCN(c3ccc4c(c3)COC4=O)CC2)CC1` [Compound 1161, 5-{4-[2-(4-isobutylpiperazin-1-yl)-2-oxoethyl]piperazin-1-yl}-2-benzofuran-1(3H)-one], the Ki is below 1 µM.

As for `CN(C(=O)c1ccc(N2CCN(CC(=O)N3CCN(C4CCC4)CC3)CC2)nc1)C1CCCCC1` [Compound 1170, 6-{4-[2-(4-cyclobutylpiperazin-1-yl)-2-oxoethyl]piperazin-1-yl}-N-cyclohexyl-N-methylnicotinamide], the Ki was below 1 µM.

`CC(C)(C)CNC(=O)c1ccc(N2CCN(CC(=O)N3CCN(C4CCC4)CC3)CC2)nc1` [Compound 1187, 6-{4-[2-(4-cyclobutylpiperazin-1-yl)-2-oxoethyl]piperazin-1-yl}-N-(2,2-dimethylpropyl) nicotinamide]: the Ki is below 1 µM.

As to `CCN(C(=O)c1ccc(N2CCN(CC(=O)N3CCN(C4CCC4)CC3)CC2)nc1)C1CCCCC1` [Compound 1171, 6-{4-[2-(4-cyclobutylpiperazin-1-yl)-2-oxoethyl]piperazin-1-yl}-N-cyclohexyl-N-ethylnicotinamide], the Ki was below 1 µM.

In the case of `CN1Cc2cc(N3CCN(CC(=O)N4CCN(C5CCC5)CC4)CC3)ccc2C1=O` [Compound 1155, 5-{4-[2-(4-cyclobutylpiperazin-1-yl)-2-oxoethyl]piperazin-1-yl}-2-methylisoindolin-1-one], the Ki is below 1 µM.

Consider `O=C(NC1CCN(CC(=O)N2CCN(C3CCC3)CC2)C1)c1ccc(Oc2ccccc2)cc1` (centres unmarked) [Compound 1244, N-{1-[2-(4-cyclobutylpiperazin-1-yl)-2-oxoethyl]pyrrolidin-3-yl}-4-phenoxybenzamide], for which the Ki is below 1 µM.

The same assay, now with this note: assay of Example 7; symbol * in column headed Ki of Table II; read-out: Ki.
Consider `CC(=O)c1ccc(N2CCC(C(C)(C)C(=O)N3CCN(C4CCCC4)CC3)CC2)cc1` [Compound 322, 1-(4-{4-[2-(4-cyclopentylpiperazin-1-yl)-1,1-dimethyl-2-oxoethyl]piperidin-1-yl}phenyl)ethanone], for which the Ki was below 1 µM.

For `CC(C)(C)C(=O)c1ccc(N2CCN(CC(=O)N3CCN(C4CCC4)CC3)CC2)cc1` [Compound 314, 1-(4-{4-[2-(4-cyclobutylpiperazin-1-yl)-2-oxoethyl]piperazin-1-yl}phenyl)-2,2-dimethylpropan-1-one], the Ki is below 1 µM.

`O=C(CN1CCN(c2ccc(C(=O)N3CC[C@@H]4CCCC[C@@H]4C3)cc2)CC1)N1CCN(C2CCC2)CC1` [Compound 255, (4aS,8aS)-2-(4-{4-[2-(4-cyclobutylpiperazin-1-yl)-2-oxoethyl]piperazin-1-yl}benzoyl) decahydroisoquinoline]: the inhibition constant Ki is below 1 µM.

Consider `Cc1cc(N2CCN(CC(=O)N3CCN(C4CCC4)CC3)CC2)ccc1Cl` [Compound 349, 1-(4-chloro-3-methylphenyl)-4-[2-(4-cyclobutylpiperazin-1-yl)-2-oxoethyl]piperazine], for which the Ki is below 1 µM.

For the compound `O=C(CN1CCN(c2ccc(-c3ccc(Cl)cc3F)cc2)CC1)N1CCN(C2CCC2)CC1` [Compound 341, 1-(4′-chloro-2′-fluorobiphenyl-4-yl)-4-[2-(4-cyclobutylpiperazin-1-yl)-2-oxoethyl]piperazine], the Ki is below 1 µM.

For the compound `CC(=O)c1ccc(-c2ccc(N3CCN(CC(=O)N4CCN(C5CCC5)CC4)CC3)cc2)cc1` [Compound 309, 1-(4′-{4-[2-(4-cyclobutylpiperazin-1-yl)-2-oxoethyl]piperazin-1-yl}biphenyl-4-yl)ethanone], the Ki is below 1 µM.

On to `CC(=O)c1ccc(N2CCN(CC(=O)N3CCN(C4CCC4)CC3)CC2)c(F)c1` [Compound 311, 1-(4-{4-[2-(4-cyclobutylpiperazin-1-yl)-2-oxoethyl]piperazin-1-yl}-3-fluorophenyl)ethanone], for which the Ki is below 1 µM.

By Ki is commonly meant the equilibrium dissociation constant of an inhibitor or competing ligand from its target.
